According to patent US20240067660A1, “MACROCYCLIC SPIROCYCLE DERIVATIVES AS MCL-1 INHIBITORS” (Janssen Pharmaceutica NV, priority 2019, published 2024):

Molecular target: Myeloid Cell Leukemia 1(Mcl-1) (Homo sapiens (Human), UniProt Q07820)
Test: Terbium labeled Mcl-1 HTRF binding assay with Cy5-labeled BIM BH3 peptide
Description: Terbium labeled Myeloid Cell Leukemia 1(Mcl-1) homogeneous time-resolved fluorescence (HTRF) binding assay utilizing the BIM BH3 peptide (H2N-(C/Cy5Mal) WIAQELRRIGDEFN-OH) as the binding partner for Mcl-1.
This assay evaluated inhibition of the BH3 domain: Mcl-1 interaction by measuring the displacement of Cy5-labeled BIM BH3 peptide (H2N—(C/Cy5Mal) WIAQELRRIGDEFN-OH) in the HTRF assay format.
The following assay and stock buffers were prepared for use in the assay: (a) Stock buffer: 10 mM Tris-HCl, pH=7.5+150 mM NaCl, filtered, sterilized, and stored at 4° C.; and (b) 1× assay buffer, where the following ingredients were added fresh to stock buffer: 2 mM dithiothreitol (DTT), 0.0025% Tween-20, 0.1 mg/mL bovine serum albumin (BSA). The 1×Tb-Mcl-1+Cy5 Bim peptide solution was prepared by diluting the protein stock solution using the 1× assay buffer (b) to 25 pM Tb-Mcl-1 and 8 nM Cy5 Bim peptide.
Using the Acoustic ECHO, 100 nL of 100× test compound(s) were dispensed into individual wells of a white 384-well Perkin Elmer Proxiplate, for a final compound concentration of lx and final DMSO concentration of 1%. Inhibitor control and neutral control (NC, 100 nL of 100% DMSO) were stamped into columns 23 and 24 of assay plate. Into each well of the plate was then dispensed 10 μL of the 1×Tb-Mcl-1+Cy5 Bim peptide solution. The plate was centrifuged with a cover plate at 1000 rpm for 1 minute, then incubated for 60 minutes at room temperature with plates covered.
The TR-FRET signal was read on an BMG PHERAStar FSX MicroPlate Reader at room temperature using the HTRF optic module (HTRF: excitation: 337 nm, light source: laser, emission A: 665 nm, emission B: 620 nm, integration start: 60 μs, integration time: […]).
The BMG PHERAStar FSX MicroPlate Reader was used to measure fluorescence intensity at two emission wavelengths—665 nm and 620 nm—and report relative fluorescence units (RFU) for both emissions, as well as a ratio of the emissions (665 nm/620 nm)*10,000. The RFU values were normalized to percent inhibition as follows:
% inhibition=((NC−IC)−(compound−IC))/(NC−IC))*100
where IC (inhibitor control, low signal)=mean signal of 1×Tb-MCl-1+Cy5 Bim peptide+inhibitor control or 100% inhibition of Mcl-1; NC (neutral control, high signal)=mean signal 1×Tb-MCl-1+Cy5 Bim peptide with DMSO only or 0% inhibition An 11-point dose response curve was generated to determine IC50 values (using GenData) based on the following equation:
Y=Bottom+(Top−Bottom)/(1+10^((IogIC50−X)*HillSlope))
where Y=% inhibition in the presence of X inhibitor concentration; Top=100% inhibition derived from the IC (mean signal of Mcl-1+inhibitor control); Bottom=0% inhibition derived from the NC (mean signal of Mcl-1+DMSO); Hillslope=Hill coefficient; and IC50=concentration of compound with 50% inhibition in relation to top/neutral control (NC).
In this assay [L]=8 nM and Kd=10 nM

[1] = first table, [L]=8 nM, Kd=10 nM, before recalibration of the equipment
[2] = obtained after recalibration of the equipment, averaged values over several runs

Chain of Myeloid Cell Leukemia 1(Mcl-1) (Q07820 whole entry): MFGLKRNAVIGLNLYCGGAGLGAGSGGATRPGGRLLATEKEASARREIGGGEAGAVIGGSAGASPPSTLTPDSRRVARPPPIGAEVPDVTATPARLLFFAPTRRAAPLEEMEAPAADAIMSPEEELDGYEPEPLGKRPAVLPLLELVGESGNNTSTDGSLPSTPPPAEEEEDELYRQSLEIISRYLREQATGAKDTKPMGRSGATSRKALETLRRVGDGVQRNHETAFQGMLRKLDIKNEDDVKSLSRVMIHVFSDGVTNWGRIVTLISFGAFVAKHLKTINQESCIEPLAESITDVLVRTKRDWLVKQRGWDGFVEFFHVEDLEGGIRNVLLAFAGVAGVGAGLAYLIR

Row | Compound | Ki [1] | Ki [2]
1 | COCC1/C=C/C[C@H](C)[C@@H](C)S(=O)(=O)NC(=O)c2ccc3c(c2)N(C[C@@H]2CCCN12)C[C@@]1(CCCc2cc(Cl)ccc21)CO3 (single isomer, unassigned) [Compound 8] | 2.04 nM | 2.64 nM
2 | C[C@@H]1[C@@H](C)C/C=C/C(CO)N2CC[C@H]2CN2C[C@@]3(CCCc4cc(Cl)ccc43)COc3ccc(cc32)C(=O)NS1(=O)=O (single isomer, unassigned) [Compound 10] | 2.65 nM | 
3 | COC[C@H]1/C=C/C[C@@H](C)[C@@H](C)S(=O)(=O)NC(=O)c2ccc3c(c2)N(C[C@@H]2CCN21)C[C@@]1(CCCc2cc(Cl)ccc21)CO3 [Compound 4] | 1.98 nM | 3.15 nM
4 | COC[C@@H]1/C=C/C[C@@H](C)[C@@H](C)S(=O)(=O)NC(=O)c2ccc3c(c2)N(C[C@@H]2CCN21)C[C@@]1(CCCc2cc(Cl)ccc21)CO3 [Compound 7] | 0.83 nM | 0.61 nM
5 | C[C@@H]1[C@@H](C)C/C=C(\F)[C@H](CO)N2CC[C@H]2CN2C[C@@]3(CCCc4cc(Cl)ccc43)COc3ccc(cc32)C(=O)NS1(=O)=O [Compound 9] | 0.22 nM | 0.23 nM
6 | C[C@@H]1[C@@H](C)C/C=C(\F)[C@H](COc2ccccn2)N2CC[C@H]2CN2C[C@@]3(CCCc4cc(Cl)ccc43)COc3ccc(cc32)C(=O)NS1(=O)=O [Compound 11] | 3.97 nM | 2.13 nM
7 | C[C@@H]1[C@@H](C)C/C=C(\F)[C@H](COc2ccccn2)N2CC[C@@H]2CN2C[C@@]3(CCCc4cc(Cl)ccc43)COc3ccc(cc32)C(=O)NS1(=O)=O [Compound 12] |  | 2.15 nM
8 | COC[C@H]1/C(F)=C/C[C@H](C)[C@@H](C)S(=O)(=O)NC(=O)c2ccc3c(c2)N(C[C@@H]2CCN21)C[C@@]1(CCCc2cc(Cl)ccc21)CO3 [Compound 13] | 0.49 nM | 0.51 nM
9 | CC(C)COC[C@H]1/C(F)=C/C[C@H](C)[C@@H](C)S(=O)(=O)NC(=O)c2ccc3c(c2)N(C[C@@H]2CCN21)C[C@@]1(CCCc2cc(Cl)ccc21)CO3 [Compound 15] | 3.64 nM | 2.33 nM
10 | CCOC[C@H]1/C(F)=C/C[C@H](C)[C@@H](C)S(=O)(=O)NC(=O)c2ccc3c(c2)N(C[C@@H]2CCN21)C[C@@]1(CCCc2cc(Cl)ccc21)CO3 [Compound 16] | 0.83 nM | 
11 | C[C@@H]1[C@@H](C)C/C=C(\F)[C@H](COCC(=O)O)N2CC[C@H]2CN2C[C@@]3(CCCc4cc(Cl)ccc43)COc3ccc(cc32)C(=O)NS1(=O)=O [Compound 17] | 0.13 nM | 0.17 nM
12 | C[C@@H]1[C@@H](C)C/C=C(\F)[C@H](COCC(=O)N2CCOCC2)N2CC[C@H]2CN2C[C@@]3(CCCc4cc(Cl)ccc43)COc3ccc(cc32)C(=O)NS1(=O)=O [Compound 18] | 0.24 nM | 0.24 nM
13 | C[C@@H]1[C@@H](C)C/C=C(\F)[C@H](COCC(=O)N2CC(F)(F)C2)N2CC[C@H]2CN2C[C@@]3(CCCc4cc(Cl)ccc43)COc3ccc(cc32)C(=O)NS1(=O)=O [Compound 19] | 0.43 nM | 0.36 nM
14 | COCCCOC[C@H]1/C(F)=C/C[C@H](C)[C@@H](C)S(=O)(=O)NC(=O)c2ccc3c(c2)N(C[C@@H]2CCN21)C[C@@]1(CCCc2cc(Cl)ccc21)CO3 [Compound 22] | 1.29 nM | 0.69 nM
15 | C[C@@H]1[C@@H](C)C/C=C(\F)[C@H](COCCC2CCOCC2)N2CC[C@H]2CN2C[C@@]3(CCCc4cc(Cl)ccc43)COc3ccc(cc32)C(=O)NS1(=O)=O [Compound 23] | 1.52 nM | 0.82 nM
16 | Cc1nc(COC[C@H]2/C(F)=C/C[C@H](C)[C@@H](C)S(=O)(=O)NC(=O)c3ccc4c(c3)N(C[C@@H]3CCN32)C[C@@]2(CCCc3cc(Cl)ccc32)CO4)no1 [Compound 24] | 0.63 nM | 0.47 nM
17 | C[C@@H]1[C@@H](C)C/C=C(\F)[C@H](COCCCN2CCOCC2)N2CC[C@H]2CN2C[C@@]3(CCCc4cc(Cl)ccc43)COc3ccc(cc32)C(=O)NS1(=O)=O [Compound 25] | 0.2 nM | 0.21 nM
18 | C[C@@H]1[C@@H](C)C/C=C(\F)[C@H](COCC2CCC2)N2CC[C@H]2CN2C[C@@]3(CCCc4cc(Cl)ccc43)COc3ccc(cc32)C(=O)NS1(=O)=O [Compound 26] | 4.72 nM | 2.87 nM
19 | C[C@@H]1[C@@H](C)C/C=C(\F)[C@H](CF)N2CC[C@H]2CN2C[C@@]3(CCCc4cc(Cl)ccc43)COc3ccc(cc32)C(=O)NS1(=O)=O [Compound 31] |  | 0.86 nM
